Molecular target: proBFT-3 (Bacteroides fragilis, UniProt O86049)
Assay: isothermal titration calorimetry
Assay type: binding

Sequence of proBFT-3 (O86049 18-397 limits assumed): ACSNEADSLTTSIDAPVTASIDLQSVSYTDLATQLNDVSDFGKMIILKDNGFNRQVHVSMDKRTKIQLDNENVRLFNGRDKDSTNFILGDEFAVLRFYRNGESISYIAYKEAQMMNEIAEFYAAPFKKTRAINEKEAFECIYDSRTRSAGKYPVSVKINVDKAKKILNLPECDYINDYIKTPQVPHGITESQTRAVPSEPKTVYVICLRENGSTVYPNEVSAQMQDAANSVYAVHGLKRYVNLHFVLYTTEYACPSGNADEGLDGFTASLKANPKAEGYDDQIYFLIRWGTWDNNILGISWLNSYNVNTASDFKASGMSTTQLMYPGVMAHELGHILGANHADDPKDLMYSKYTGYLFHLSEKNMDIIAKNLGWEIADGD

Row | Structure (SMILES) | Kd [µM]
1 | COc1ccc([C@@H]2CC(=O)c3c(O)cc(O)cc3O2)cc1O [C-10, hesperetin] | 22
2 | C[C@@H]1CCc2cc(F)cc3c(=O)c(C(=O)O)cn1c23 [C-4, flumequine] | 20

Source: paper PMC9514063 (Protein Science : A Publication of the Protein Society, 2022)
